Tests used:
Assay type in all cases: in vivo
[1] = tested on: Amaranthus retoflexus (AMARE); test: B1 Post-Emergence Efficacy - Test 1; settings: 1000 g/ha, after 13 days, five point scale
Procedure: (§1) Seeds of a variety of test species are sown in standard soil in pots:— Solanum nigrum (SOLNI), Amaranthus retoflexus (AMARE), Setaria faberi (SETFA), Alopecurus myosuroides (ALOMY), Echinochloa crus-galli (ECHCG), Ipomoea hederacea (IPOHE), Lolium perenne (LOLPE). After 8 days cultivation (post-emergence) under controlled conditions in a glasshouse (at 24/16° C., day/night; 14 hours light; 65% humidity), the plants are sprayed with an aqueous spray solution derived from the formulation of the technical active ingredient in acetone/water (50:50) solution containing 0.5% Tween 20 (polyoxyethylene sorbitan monolaurate, CAS RN 9005-64-5). Compounds are applied at 1000 g/ha. The test plants are then grown in a glasshouse under controlled conditions in a glasshouse (at 24/16° C., day/night; 14 hours light; 65% humidity) and watered twice daily. After 13 days, the test is evaluated for the percentage damage caused to the plant. The biological activities are assessed on a five point scale (5=80-100%; 4=60-79%; 3=40-59%; 2=20-39%; 1=0-19%). A blank value in the table is indicative that the compound was not tested on that species.

[2] = tested on: Echinochloa crus-galli (ECHCG); test: B1 Post-Emergence Efficacy - Test 1; settings: 1000 g/ha, after 13 days, five point scale
Procedure: as §1

[3] = tested on: Ipomoea hederacea (IPOHE); test: B1 Post-Emergence Efficacy - Test 1; settings: 1000 g/ha, after 13 days, five point scale
Procedure: as §1

Lolium perenne (LOLPE) = test: B1 Post-Emergence Efficacy - Test 1; settings: 1000 g/ha, after 13 days, five point scale
Procedure: as §1

Setaria faberi (SETFA) [4] = test: B1 Post-Emergence Efficacy - Test 1; settings: 1000 g/ha, after 13 days, five point scale
Procedure: as §1

Solanum nigrum (SOLNI) = test: B1 Post-Emergence Efficacy - Test 1; settings: 1000 g/ha, after 13 days, five point scale
Procedure: as §1

[5] = tested on: Abutilon theophrasti (ABUTH); test: B3 Herbicidal Efficacy of Compounds of Formula (II), post-emergence; settings: 312 h, application post-emergence, after 13 days, 100=total damage, 0=no damage, read-out: percentage phytotoxicity to the plant, ABUTH
Procedure: (§2) Seeds of a variety of test species [Ipomoea hederacea (IPOHE); Zea mays (ZEAMX); Echinochloa crus-galli (ECHCG); Setaria faberi (SETFA); Abutilon theophrasti (ABUTH); Amaranthus retroflexus (AMARE)] were sown in standard sterilised soil in pots. After cultivation for one day (pre-emergence) or after 8 days cultivation (post-emergence) under controlled conditions in a glasshouse (at 24/16° C., day/night; 14 hours light; 65% humidity), the plants were sprayed with an aqueous spray solution derived from the formulation of the technical active ingredient in acetone/water (50:50) solution containing 0.5% Tween 20 (polyoxyethelyene sorbitan monolaurate, CAS RN 9005-64-5), subsequently diluted in water, and sprayed to give the stated application rate. The test plants were then grown under controlled conditions in a glasshouse (at 24/16° C., day/night; 14 hours light; 65% humidity) and watered twice daily. After 13 days for pre and post-emergence, the test was evaluated visually for percentage phytotoxicity to the plant (where 100=total damage to plant; 0=no damage to plant).

[6] = tested on: Amaranthus retroflexus (AMARE); test: as above; settings: 312 h, application post-emergence, after 13 days, 100=total damage, 0=no damage, read-out: percentage phytotoxicity to the plant, AMARE
Procedure: as §2

[7] = tested on: Echinochloa crus-galli (ECHCG); test: as above; settings: 312 h, application post-emergence, after 13 days, 100=total damage, 0=no damage, read-out: percentage phytotoxicity to the plant, ECHCG
Procedure: as §2

[8] = tested on: Ipomoea hederacea (IPOHE); test: as above; settings: 312 h, application post-emergence, after 13 days, 100=total damage, 0=no damage, read-out: percentage phytotoxicity to the plant, IPOHE
Procedure: as §2

Setaria faberi (SETFA) [9] = test: as above; settings: 312 h, application post-emergence, after 13 days, 100=total damage, 0=no damage, read-out: percentage phytotoxicity to the plant, SETFA
Procedure: as §2

Zea mays (ZEAMX) [10] = test: as above; settings: 312 h, application post-emergence, after 13 days, 100=total damage, 0=no damage, read-out: percentage phytotoxicity to the plant, ZEAMX
Procedure: as §2

[11] = tested on: Abutilon theophrasti (ABUTH); test: B3 Herbicidal Efficacy of Compounds of Formula (II), pre-emergence; settings: 312 h, application pre-emergence, after 13 days, 100=total damage, 0=no damage, read-out: percentage phytotoxicity to the plant, ABUTH
Procedure: as §2

[12] = tested on: Amaranthus retroflexus (AMARE); test: as above; settings: 312 h, application pre-emergence, after 13 days, 100=total damage, 0=no damage, read-out: percentage phytotoxicity to the plant, AMARE
Procedure: as §2

[13] = tested on: Echinochloa crus-galli (ECHCG); test: as above; settings: 312 h, application pre-emergence, after 13 days, 100=total damage, 0=no damage, read-out: percentage phytotoxicity to the plant, ECHCG
Procedure: as §2

[14] = tested on: Ipomoea hederacea (IPOHE); test: as above; settings: 312 h, application pre-emergence, after 13 days, 100=total damage, 0=no damage, read-out: percentage phytotoxicity to the plant, IPOHE
Procedure: as §2

Setaria faberi (SETFA) [15] = test: as above; settings: 312 h, application pre-emergence, after 13 days, 100=total damage, 0=no damage, read-out: percentage phytotoxicity to the plant, SETFA
Procedure: as §2

Zea mays (ZEAMX) [16] = test: as above; settings: 312 h, application pre-emergence, after 13 days, 100=total damage, 0=no damage, read-out: percentage phytotoxicity to the plant, ZEAMX
Procedure: as §2

Cc1nn(C)c(=O)c(-c2c(F)ccc(Cl)c2CCc2ccccc2)c1O [Compound 1.001, 4-(3-chloro-6-fluoro-2-phenethyl-phenyl)-5-hydroxy-2,6-dimethyl-pyridazin-3-one]
5 (5=80-100%): percentage damage caused to the plant, AMARE [1] | percentage damage caused to the plant, ECHCG [2] | percentage damage caused to the plant, IPOHE [3] | percentage damage caused to the plant, LOLPE (Lolium perenne (LOLPE)) | percentage damage caused to the plant, SETFA (Setaria faberi (SETFA) [4]) | percentage damage caused to the plant, SOLNI (Solanum nigrum (SOLNI))

Cc1nn(C)c(=O)c(-c2c(F)ccc(Cl)c2/C=C/c2ccccc2)c1O [Compound 1.002, 4-[3-chloro-6-fluoro-2-[(E)-styryl]phenyl]-5-hydroxy-2,6-dimethyl-pyridazin-3-one]
5 (5=80-100%): percentage damage caused to the plant, IPOHE [3] | percentage damage caused to the plant, SOLNI (Solanum nigrum (SOLNI))
4 (4=60-79%): percentage damage caused to the plant, AMARE [1] | percentage damage caused to the plant, ECHCG [2] | percentage damage caused to the plant, LOLPE (Lolium perenne (LOLPE))
3 (3=40-59%): percentage damage caused to the plant, SETFA (Setaria faberi (SETFA) [4])

Cc1nn(C)c(=O)c(-c2c(F)ccc(Cl)c2CCc2ccc(Cl)cc2)c1O [Compound 1.012, 4-[3-chloro-2-[2-(4-chlorophenyl)ethyl]-6-fluoro-phenyl]-5-hydroxy-2,6-dimethyl-pyridazin-3-one]
5 (5=80-100%): percentage damage caused to the plant, AMARE [1] | percentage damage caused to the plant, ECHCG [2] | percentage damage caused to the plant, IPOHE [3] | percentage damage caused to the plant, LOLPE (Lolium perenne (LOLPE)) | percentage damage caused to the plant, SETFA (Setaria faberi (SETFA) [4]) | percentage damage caused to the plant, SOLNI (Solanum nigrum (SOLNI))

Cc1nn(C)c(=O)c(-c2c(F)ccc(Cl)c2CCc2ccc(C(F)(F)F)cc2)c1O [Compound 1.018, 4-[3-chloro-6-fluoro-2-[2-[4-(trifluoromethyl)phenyl]ethyl]phenyl]-5-hydroxy-2,6-dimethyl-pyridazin-3-one]
5 (5=80-100%): percentage damage caused to the plant, AMARE [1] | percentage damage caused to the plant, ECHCG [2] | percentage damage caused to the plant, IPOHE [3] | percentage damage caused to the plant, LOLPE (Lolium perenne (LOLPE)) | percentage damage caused to the plant, SETFA (Setaria faberi (SETFA) [4]) | percentage damage caused to the plant, SOLNI (Solanum nigrum (SOLNI))

Cc1nn(C)c(=O)c(-c2c(F)ccc(Cl)c2CCc2cccnc2)c1O [Compound 1.054, 4-[3-chloro-6-fluoro-2-[2-(3-pyridyl)ethyl]phenyl]-5-hydroxy-2,6-dimethyl-pyridazin-3-one]
5 (5=80-100%): percentage damage caused to the plant, AMARE [1] | percentage damage caused to the plant, ECHCG [2] | percentage damage caused to the plant, IPOHE [3] | percentage damage caused to the plant, LOLPE (Lolium perenne (LOLPE)) | percentage damage caused to the plant, SETFA (Setaria faberi (SETFA) [4]) | percentage damage caused to the plant, SOLNI (Solanum nigrum (SOLNI))

Cc1nn(C)c(=O)c(-c2c(F)ccc(Cl)c2CCc2ccc(F)c(F)c2)c1O [Compound 1.060, 4-[3-chloro-2-[2-(3,4-difluorophenyl)ethyl]-6-fluoro-phenyl]-5-hydroxy-2,6-dimethyl-pyridazin-3-one]
5 (5=80-100%): percentage damage caused to the plant, AMARE [1] | percentage damage caused to the plant, ECHCG [2] | percentage damage caused to the plant, IPOHE [3] | percentage damage caused to the plant, LOLPE (Lolium perenne (LOLPE)) | percentage damage caused to the plant, SETFA (Setaria faberi (SETFA) [4]) | percentage damage caused to the plant, SOLNI (Solanum nigrum (SOLNI))

Cc1nn(C)c(=O)c(-c2c(F)ccc(Cl)c2CCc2ccc(C(F)(F)F)cc2)c1OC(=O)C(C)C [Compound 1.095, [5-[3-chloro-6-fluoro-2-[2-[4-(trifluoromethyl)phenyl]ethyl]phenyl]-1,3-dimethyl-6-oxo-pyridazin-4-yl] 2-methylpropanoate]
5 (5=80-100%): percentage damage caused to the plant, AMARE [1] | percentage damage caused to the plant, ECHCG [2] | percentage damage caused to the plant, IPOHE [3] | percentage damage caused to the plant, LOLPE (Lolium perenne (LOLPE)) | percentage damage caused to the plant, SOLNI (Solanum nigrum (SOLNI))

Cc1ccc(CCc2c(Cl)ccc(F)c2-c2c(OC(=O)C(C)C)c(C)nn(C)c2=O)cc1 [Compound 1.149, [5-[3-chloro-6-fluoro-2-[2-(p-tolyl)ethyl]phenyl]-1,3-dimethyl-6-oxo-pyridazin-4-yl] 2-methylpropanoate]
5 (5=80-100%): percentage damage caused to the plant, AMARE [1] | percentage damage caused to the plant, ECHCG [2] | percentage damage caused to the plant, IPOHE [3] | percentage damage caused to the plant, LOLPE (Lolium perenne (LOLPE)) | percentage damage caused to the plant, SETFA (Setaria faberi (SETFA) [4]) | percentage damage caused to the plant, SOLNI (Solanum nigrum (SOLNI))

CN1C[C@H](c2cc(C(F)(F)F)n(C)n2)[C@@H](C(=O)Nc2cccc(F)c2C(C)(F)F)C1=O [Compound 2.12, (3S,4R)-N-[2-(1,1-difluoroethyl)-3-fluoro-phenyl]-1-methyl-4-[1-methyl-5-(trifluoromethyl)pyrazol-3-yl]-2-oxo-pyrrolidine-3-carboxamide]
80%: percent crop injury (phytotoxicity to maize) at 250 g/ha (Zea mays (ZEAMX) [10])
0%: pest or weed control at 250 g/ha [5] | pest or weed control at 250 g/ha [6] | pest or weed control at 250 g/ha [11] | pest or weed control at 250 g/ha [12]
90%: pest or weed control at 250 g/ha [7] | pest or weed control at 250 g/ha (Setaria faberi (SETFA) [9]) | pest or weed control at 250 g/ha [13] | pest or weed control at 250 g/ha (Setaria faberi (SETFA) [15]) | plant injury at 250 g/ha (Zea mays (ZEAMX) [16])
50%: pest or weed control at 250 g/ha [8]
70%: pest or weed control at 250 g/ha [14]
